{"source": "paper PMC11374673", "about": "“Discovery of isoquinoline sulfonamides as allosteric gyrase inhibitors with activity against fluoroquinolone-resistant bacteria” (Nature Chemistry, 2024)", "key": {"[1]": {"tested_on": "60-resistant (60-r) isolates of E. coli W3110", "assay": "microbe, parasite or virus in culture", "type": "cell-based, Escherichia coli", "settings": "Escherichia coli", "description": "(§1) MIC was determined by broth microdilution. Single-colony cultures were grown to exponential phase (OD600 of 0.5) aerobically at 37 °C. In case of strains from the Keio collection, 50 µg ml^−1 kanamycin was supplemented to the media to ascertain a homogeneous population. The bacterial suspensions were diluted 100-fold in CAMHB and 50 µl was added to a twofold serial dilution series of test compounds (50 µl per well) in polypropylene 96-well microtitre plates to reach a volume of 100 µl. The plates were sealed with breathable membranes and incubated overnight at 37 °C with constant shaking (600 r.p.m.). The MIC was determined as the lowest concentration at which no visible bacterial growth was observed as compared with the inoculum controls from the median of a minimum of triplicates.\nThe plates were incubated at 37 °C and checked for growth after 24 and 48 h. […] Nine colonies with an increased MIC were selected for further analysis and stored as glycerol stocks."}, "[2]": {"tested_on": "E. coli BW25113 and single-gene knockouts", "assay": "MIC on E. coli strains of the Keio collection", "type": "cell-based, Escherichia coli", "settings": "Escherichia coli, BW25113, read-out: MIC E. coli BW25113, parent strain", "description": "as §1"}, "E. coli ATCC 25922": {"tested_on": "E. coli ATCC 25922", "assay": "MIC by broth microdilution", "type": "cell-based", "settings": "Escherichia coli, ATCC25922; read-out: MIC E. coli ATCC 25922", "description": "as §1, with “r.p.m.).” for “r.p.m.). The MIC was determined as the lowest concentration at which no visible bacterial growth was observed as compared with the inoculum controls from the median of a minimum of triplicates.”"}, "HepG2": {"tested_on": "HepG2", "assay": "Cytotoxicity assay (MTT)", "type": "cell-based, human", "settings": "Homo sapiens, HepG2, 24 h, MTT, 24 h"}, "HEK293T": {"tested_on": "HEK293T", "assay": "Cytotoxicity assay (MTT)", "type": "cell-based, human", "settings": "Homo sapiens, HEK-293T, 24 h, MTT", "method_in_brief": "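HEK293T cells, maintained at 37 °C and 7% CO2 in Dulbecco’s modified Eagle medium with GlutaMax, antibiotics and serum, were plated in clear 96-well plates in 100 µl medium containing 1% fetal bovine serum and left 24 h to attach. After 24 h compound exposure, MTT (0.40 mg ml^−1) was added for 2 h. Formazan was dissolved in 100 µl DMSO and absorbance measured at 570 nm. Background-corrected IC50 values came from variable-slope non-linear fits.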"}, "P. aeruginosa ATCC 27853": {"tested_on": "P. aeruginosa ATCC 27853", "assay": "MIC by broth microdilution", "type": "cell-based", "settings": "Pseudomonas aeruginosa, ATCC27853; read-out: MIC P. aeruginosa ATCC 27853", "description": "as §1"}, "[3]": {"tested_on": "S. aureus ATCC 29213 / ATCC BAA1717", "assay": "MIC by broth microdilution", "type": "cell-based", "settings": "Staphylococcus aureus", "description": "as §1"}, "A. baumannii ATCC BAA747": {"tested_on": "A. baumannii ATCC BAA747", "assay": "MIC by broth microdilution", "type": "cell-based", "settings": "Acinetobacter baumannii, ATCCBAA747; read-out: MIC A. baumannii ATCC BAA747", "description": "as §1"}, "K. pneumoniae ATCC 29665": {"tested_on": "K. pneumoniae ATCC 29665", "assay": "MIC by broth microdilution", "type": "cell-based, Klebsiella pneumoniae", "settings": "Klebsiella pneumoniae, ATCC29665, read-out: MIC K. pneumoniae ATCC 29665", "method_in_brief": "(§2)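 Broth microdilution in CAMHB: twofold compound series inoculated with 100-fold-diluted bacteria from exponential growth (OD600 0.5, 37 °C); kanamycin 50 µg ml^−1 added for Keio collection strains. Overnight incubation, 37 °C, 600 r.p.m. shaking.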"}, "E. coli W3110 [4]": {"tested_on": "E. coli W3110", "assay": "MIC by broth microdilution", "type": "cell-based, Escherichia coli", "settings": "Escherichia coli", "method_in_brief": "as §2"}, "E. coli W3110 [5]": {"tested_on": "E. coli W3110", "assay": "H-89 derivatives rescreen, 50 µM", "type": "cell-based", "settings": "Escherichia coli, H-89 derivative rescreen, highest 50 µM", "description": "From glycerol stocks, E. coli W3110 was cultured on blood agar plates (PB5039A, Thermo Scientific) by overnight (18 ± 2 h) aerobic incubation at 37 °C. A single colony was transferred to tryptic soy broth (TSB, 02-200-500, Scharlab). The cultures were grown to exponential phase (OD600 of 0.5) at 37 °C. The bacterial suspensions were diluted 200-fold in cation-adjusted Mueller–Hinton broth (CAMHB) and 99 µl was added to a library of test compounds (1 µl 10 mM DMSO stock, per well in technical duplicates) in polypropylene 96-well microtitre plates to reach a volume of 100 µl and a final concentration of 100 µM for each test compound and a maximum of 1% DMSO. […] Screening hits were selected from the wells where no visible bacterial growth was observed, as compared with the inoculum controls containing 1% DMSO. The follow-up screen of H-89 derivatives was performed under similar conditions with a final concentration of 50 µM."}}, "note": "Where two headings read alike, the source gives them in different places.", "data": [{"smiles": "O=S(=O)(NCCNCc1ccc(-c2cccnc2)cc1)c1cccc2cnccc12", "note": "[Compound 1]", "values": [{"measurement": "MIC", "setting": "[1]; E. coli W3110 60-r1", "value": "> 100", "unit": "µM"}, {"measurement": "MIC", "setting": "[1]; E. coli W3110 60-r3", "value": 100, "unit": "µM"}, {"measurement": "MIC", "setting": "[1]; E. coli W3110 60-r6", "value": "> 100", "unit": "µM"}, {"measurement": "MIC", "setting": "[2]", "value": 12.5, "unit": "µM"}, {"measurement": "MIC", "setting": "E. coli ATCC 25922", "value": 25, "unit": "µM"}, {"measurement": "IC50", "setting": "HepG2", "value": "> 50", "unit": "µM"}, {"measurement": "IC50", "setting": "HEK293T", "value": "> 50", "unit": "µM"}, {"measurement": "MIC", "setting": "P. aeruginosa ATCC 27853", "value": "> 50", "unit": "µM"}, {"measurement": "MIC", "setting": "[3]; read-out: MIC S. aureus ATCC 29213", "value": "> 50", "unit": "µM"}, {"measurement": "MIC", "setting": "[3]; read-out: MIC S. aureus ATCC BAA1717", "value": "> 50", "unit": "µM"}, {"measurement": "MIC", "setting": "A. baumannii ATCC BAA747", "value": "> 50", "unit": "µM"}, {"measurement": "MIC", "setting": "K. pneumoniae ATCC 29665", "value": 12.5, "unit": "µM"}, {"measurement": "MIC", "setting": "E. coli W3110 [4]; W3110, WT, broth microdilution, read-out: MIC E. coli W3110", "value": 6.25, "unit": "µM"}, {"measurement": "MIC", "setting": "E. coli W3110 [4]; W3110, follow-up of the 12 library hits, read-out: MIC E. coli", "value": 6.25, "unit": "µM"}, {"measurement": "MIC", "setting": "E. coli W3110 [4]; W3110, read-out: MIC E. coli", "value": 2.6, "unit": "µg/mL"}, {"measurement": "MIC", "setting": "E. coli W3110 [5]", "value": 6.25, "unit": "µM"}]}]}
